Here are results for 41 compounds from patent publication US9828342B2, “Isatin derivatives, pharmaceutical compositions thereof, and methods of use thereof” (CITY OF HOPE, priority 2012, dated 2017).

In general, IC50 refers to the concentration that inhibits the measured activity by half.

Where two headings read alike, the source gives them in different places.

Test [1] concerns A2058 human melanoma cells. Briefly: MTS cell viability assay in A2058 melanoma cells. It is filed as cell-based. The method, then:
(§1) Then, MTS assays for cell viability were carried out to determine the IC50 values. Four samples were tested for each isatin derivative at each concentration in each cell line, and the averaged data were shown in Table 2a and FIGS. 1˜4.
(§2) IC50 of values of isatin derivatives Compounds 101˜123 were determined in cancer cell lines DU145 and A2058 respectively.

The subject of test [2] is DU145 prostate cancer cells. Nature of the test: MTS cell viability assay in DU145 prostate cancer cells. It is filed as cell-based. As to the method:
as §1, §2
On the technique in general: Formazan colour is commonly taken as a measure of viable cells.

The mark [3] stands for this setting: Homo sapiens, A2058, 48 h, 0.05 to 10 μM in 1% DMSO, MTS (Table 2a), read-out: A2058 IC50.
[4] abbreviates: Homo sapiens, DU-145, 48 h, DU145, 48 hr, 0.05 to 10 μM in 1% DMSO, MTS (Table 2a), read-out: DU145 IC50.
Setting [5] is: Homo sapiens, A2058, 48 h, A2058, compound in DMSO, 48 hr, MTS (Table 2b), read-out: IC50 value, DMSO, A2058.
Setting [6] is: Homo sapiens, DU-145, 48 h, DU145, compound in DMSO, 48 hr, MTS (Table 2b), read-out: IC50 value, DMSO, DU145.
The mark [7] stands for this setting: A2058, compound in DMSO, 48 hr, MTS (Table 2b), read-out: IC50 value, DMSO, A2058.
The mark [8] stands for this setting: Homo sapiens, A2058, 48 h, A2058, compound in water, 48 hr, MTS (Table 2b), read-out: IC50 value, Water, A2058.
The mark [9] stands for this setting: DU145, compound in DMSO, 48 hr, MTS (Table 2b), read-out: IC50 value, DMSO, DU145.
[10] abbreviates: Homo sapiens, DU-145, 48 h, DU145, compound in water, 48 hr, MTS (Table 2b), read-out: IC50 value, Water, DU145.

Consider `Cc1ccc2c(c1)C(=O)C(=O)N2CCCc1ccccc1` [Compound 19], for which the IC50 in test [1] (setting [3]) and in test [2] (setting [4]) was above 5000 nM in each case.

With `O=C1C(=O)N(CCCc2ccccc2)c2ccc(-c3ccco3)cc21` [Compound 25], the results for the half-maximal inhibitory concentration (IC50) in test [1] (setting [3]) and in test [2] (setting [4]) were 2000 nM and 1500 nM, respectively.

Turning to `O=C1C(=O)N(C/C=C/c2ccccc2)c2ccc(-c3ccc(F)nc3)cc21` [Compound 29], the IC50 in test [1] (setting [3]) amounted to 300 nM; in test [2] (setting [4]), 330 nM.

For the compound `O=C1C(=O)N(C/C=C/c2ccc3ccccc3n2)c2ccc(-c3cccnc3)cc21` [Compound 114], the figures for the IC50 in test [1] (setting [5]) and in test [2] (setting [6]) were 650 nM and 1000 nM, respectively.

`O=C1C(=O)N(C/C=C/c2ccc3ccccc3n2)c2ccc(-c3cccnc3)cc21` [Compound 115]: the IC50 in test [1] (setting [7]) was found to be 680 nM; in test [1] (setting [8]), 1900 nM; in test [2] (setting [9]), 1400 nM; in test [2] (setting [10]) it was 1900 nM.

Consider `O=C1C(=O)N(CCO)c2ccc(-c3cccnc3)cc21` [Compound 10], for which the IC50 in test [1] (setting [3]) and in test [2] (setting [4]) was above 5000 nM each time.

Turning to `O=C1C(=O)N(Cc2ccccc2I)c2ccc(-c3cccnc3)cc21` [Compound 117], the half-inhibitory concentration (IC50) in test [1] (setting [5]) came to 1900 nM; in test [2] (setting [6]) it was 3400 nM.

On to `O=C1C(=O)N(CCCc2ccccc2)c2ccc(-c3cncnc3)cc21` [Compound 26], for which the values for the IC50 in test [1] (setting [3]) and in test [2] (setting [4]) were 700 nM and 530 nM, respectively.

Regarding `O=C1Cc2cc(-c3cccnc3)ccc2N1Cc1ccccc1` [Compound 15, N-Benzyl-5-(pyridin-3-yl)indoline-2-one], the IC50 in test [1] (setting [3]) and in test [2] (setting [4]) was above 5000 nM throughout.

As for `O=C1/C(=N/O)c2cc(-c3cccnc3)ccc2N1Cc1ccccc1` [Compound 33], the concentration for half-maximal inhibition (IC50) in test [1] (setting [3]) and in test [2] (setting [4]) was above 5000 nM in each case.

Turning to `CC(C)c1ccc2c(c1)C(=O)C(=O)N2CCCc1ccccc1` [Compound 21], the IC50 in test [1] (setting [3]) is 3200 nM; in test [2] (setting [4]) it was above 5000 nM.

`CN1C(=O)C(=O)c2cc(-c3cccnc3)ccc21` [Compound 7]: the IC50 in test [1] (setting [3]) was 4200 nM; in test [2] (setting [4]), 4300 nM.

With `O=C1C(=O)N(CCCc2ccccc2)c2ccc(-c3ccsc3)cc21` [Compound 24], the half-maximal inhibitory concentration (IC50) in test [1] (setting [3]) stood at 2900 nM; in test [2] (setting [4]), 2500 nM.

As for `O=C1C(O)c2cc(-c3cccnc3)ccc2N1Cc1ccccc1` (stereo not drawn) [Compound 13, N-Benzyl-3-hydroxy-5-(pyridin-3-yl)indoline-2-one], the concentration for half-maximal inhibition (IC50) in test [1] (setting [3]) was found to be 2300 nM; in test [2] (setting [4]), 2500 nM.

Take `CO/N=C1/C(=O)N(Cc2ccccc2)c2ccc(-c3cccnc3)cc21` [Compound 34]: the IC50 in test [1] (setting [3]) and in test [2] (setting [4]) was above 5000 nM each time.

Turning to `O=C1C(=O)N(Cc2ccccn2)c2ccc(-c3cccnc3)cc21` [Compound 103], the 50% inhibitory concentration (IC50) in test [1] (setting [5]) came out at 4400 nM; in test [2] (setting [6]) it was 4300 nM.

With `O=C1C(=O)N(CCCc2cccnc2)c2ccc(-c3cccnc3)cc21` [Compound 104], the half-maximal inhibitory concentration (IC50) in test [1] (setting [7]) came out at 2100 nM; in test [2] (setting [9]), 910 nM.

Take `O=C1C(=O)N(C/C=C/c2ccccn2)c2ccc(-c3cccnc3)cc21` [Compound 111]: the IC50 in test [1] (setting [7]) was found to be 580 nM; in test [1] (setting [8]), 840 nM; in test [2] (setting [9]), 480 nM; in test [2] (setting [10]), 500 nM.

On to `O=C1C(=O)N(C/C=C/c2cccnc2)c2ccc(-c3cccnc3)cc21` [Compound 108], for which the IC50 is 500 nM in test [1] (setting [5]) and 450 nM in test [2] (setting [6]).

On to `CCN(CCN1C(=O)C(=O)c2cc(-c3cccnc3)ccc21)c1ccccc1` [Compound 112], for which the half-maximal inhibitory concentration (IC50) in test [1] (setting [5]) and in test [2] (setting [6]) was above 5000 nM each time.

Take `CCN(CCN1C(=O)C(=O)c2cc(-c3cccnc3)ccc21)c1ccccc1` [Compound 113]: the IC50 in test [1] (setting [8]) and in test [2] (setting [10]) was above 5000 nM throughout.

For the compound `O=C1C(=O)N(Cc2ccccc2)c2ccc(-c3ccccc3)cc21` [Compound 32], the IC50 in test [1] (setting [3]) is 1900 nM; in test [2] (setting [4]), 4100 nM.

With `O=C1C(=O)N(Cc2ccccn2)c2ccc(-c3cccnc3)cc21` [Compound 102], the values for the half-maximal inhibitory concentration (IC50) in test [1] (setting [7]) and in test [2] (setting [9]) were 3700 nM and 4100 nM, respectively.

On to `O=C1C(=O)N(Cc2cccc(-c3cccnc3)c2)c2ccc(-c3cccnc3)cc21` [Compound 119], for which the values for the 50% inhibitory concentration (IC50) in test [1] (setting [5]) and in test [2] (setting [6]) were 1400 nM and 2300 nM, respectively.

As to `O=C1C(=O)N(C/C=C/c2ccccc2)c2ccc(-c3cccnc3F)cc21` [Compound 31], the results for the IC50 in test [1] (setting [3]) and in test [2] (setting [4]) were 350 nM and 260 nM, respectively.

`O=C1C(=O)N(CCc2ccccc2)c2ccc(-c3cccnc3)cc21` [Compound 8]: the IC50 was above 5000 nM in test [1] (setting [3]) and 5000 nM in test [2] (setting [4]).

Take `O=C1C(=O)N(Cc2ccc(I)cc2)c2ccc(-c3cccnc3)cc21` [Compound 121]: the half-inhibitory concentration (IC50) turned out to be 350 nM in test [1] (setting [5]) and 500 nM in test [2] (setting [6]).

With `O=C1C(=O)N(C/C=C/c2ccccc2)c2ccc(-c3ccsc3)cc21` [Compound 30], the results for the IC50 in test [1] (setting [3]) and in test [2] (setting [4]) were 1400 nM and 870 nM, respectively.

For `CC(=O)OC1C(=O)N(Cc2ccccc2)c2ccc(-c3cccnc3)cc21` (stereo not drawn) [Compound 14, 3-Acetoxy-N-Benzyl-5-(pyridin-3-yl)indoline-2-one], the IC50 in test [1] (setting [3]) and in test [2] (setting [4]) was above 5000 nM in each case.

Take `O=C1C(=O)N(Cc2ccc(-c3cccnc3)cc2)c2ccc(-c3cccnc3)cc21` [Compound 122]: the results for the IC50 in test [1] (setting [5]) and in test [2] (setting [6]) were 380 nM and 580 nM, respectively.

`O=C1C(=O)N(CCCc2ccccc2)c2ccc(-c3ccccc3)cc21` [Compound 23]: the IC50 in test [1] (setting [3]) was determined as 5900 nM; in test [2] (setting [4]) it was 4200 nM.

Take `O=C1C(=O)N(Cc2cccc(-c3cccnc3)c2)c2ccc(-c3cccnc3)cc21` [Compound 120]: the IC50 in test [1] (setting [7]) was 1200 nM; in test [1] (setting [8]), 1900 nM; in test [2] (setting [9]), 2300 nM; in test [2] (setting [10]) it was 4100 nM.

`O=C1C(=O)N(Cc2ccccc2)c2cc(-c3ccccc3)ccc21` [Compound 1]: the IC50 in test [1] (setting [3]) and in test [2] (setting [4]) was above 10000 nM each time.

For `O=C1C(=O)N(C/C=C/c2ccccn2)c2ccc(-c3cccnc3)cc21` [Compound 110], the IC50 in test [1] (setting [5]) was found to be 580 nM; in test [2] (setting [6]), 470 nM.

For `O=C1C(=O)N(C/C=C/c2ccccc2)c2ccc(-c3cncnc3)cc21` [Compound 27], the values for the IC50 in test [1] (setting [3]) and in test [2] (setting [4]) were 400 nM and 360 nM, respectively.

Regarding `O=C1C(=O)N(C/C=C/c2cccnc2Cl)c2ccc(-c3cccnc3)cc21` [Compound 116], the figures for the half-inhibitory concentration (IC50) in test [1] (setting [5]) and in test [2] (setting [6]) were 390 nM and 660 nM, respectively.

Regarding `C[Si](C)(C)CCOCN1C(=O)C(=O)c2cc(I)ccc21` [Compound 6], the half-inhibitory concentration (IC50) in test [1] (Homo sapiens, A2058, 48 hr, 0.05 to 10 μM in 1% DMSO, MTS (Table 2a), read-out: A2058 IC50) came to 6900 nM; in test [2] (Homo sapiens, DU-145, DU145, 48 hr, 0.05 to 10 μM in 1% DMSO, MTS (Table 2a), read-out: DU145 IC50) it was 4600 nM.

For `O=C1C(=O)N(C/C=C/c2ccncc2)c2ccc(-c3cccnc3)cc21` [Compound 107], the IC50 stood at 2000 nM in test [1] (setting [7]), 1600 nM in test [1] (setting [8]), 960 nM in test [2] (setting [9]) and 740 nM in test [2] (setting [10]).

Turning to `O=C1C(=O)N(Cc2ccccc2)c2cccc(Br)c21` [Compound 5], the IC50 in test [1] (setting [3]) and in test [2] (setting [4]) was above 10000 nM throughout.

For the compound `O=C1C(=O)N(C/C=C/c2ccncc2)c2ccc(-c3cccnc3)cc21` [Compound 106], the half-maximal inhibitory concentration (IC50) in test [1] (setting [5]) worked out at 1400 nM; in test [2] (setting [6]), 740 nM.

As to `O=C1C(=O)N(Cc2ccccc2)c2ccc(I)cc21` [Compound 4, N-benzyl-5-iodoindoline-2,3-dione], the half-inhibitory concentration (IC50) in test [1] (setting [3]) is 3800 nM; in test [2] (setting [4]) it was 2400 nM.
